Data on 13 compounds can be found in patent publication US10421778B2, “Isoform-selective lysine deacetylase inhibitors” (WASHINGTON UNIVERSITY, priority 2015, dated 2019).

Like-named read-outs stand apart in the source and are kept apart here. Marks after values point to notes of the source that are not given here.

In one assay the test system is KDAC1, KDAC2, and KDAC3. The settings on record: background statement; cited from earlier work.
Assay [1] deals with Resting CD4+ T cells isolated from a patient fully suppressed on antiretroviral therapy. Briefly: Reactivation of virus in resting CD4+ T cells of a suppressed patient (HIV-1 p24 ELISA). Type of assay: cell-based. The settings on record: 1 μM, 48 hours, then co-culture with MOLT4/CCR5 cells 7 days; preliminary data. The source says: Cells were washed and co-cultured with MOLT4/CCR5 cells for 7 days. R Cellular supernatants were collected for HIV-1 p24 ELISA. N.R—non reactive.
For orientation: ELISA stands for enzyme-linked immunosorbent assay.

Another assay deals with T1, recombinant human KDAC8 (Homo sapiens, UniProt Q9BY41).
T1 construct: purchased BPS Bioscience
T1 sequence (Q9BY41 1-377): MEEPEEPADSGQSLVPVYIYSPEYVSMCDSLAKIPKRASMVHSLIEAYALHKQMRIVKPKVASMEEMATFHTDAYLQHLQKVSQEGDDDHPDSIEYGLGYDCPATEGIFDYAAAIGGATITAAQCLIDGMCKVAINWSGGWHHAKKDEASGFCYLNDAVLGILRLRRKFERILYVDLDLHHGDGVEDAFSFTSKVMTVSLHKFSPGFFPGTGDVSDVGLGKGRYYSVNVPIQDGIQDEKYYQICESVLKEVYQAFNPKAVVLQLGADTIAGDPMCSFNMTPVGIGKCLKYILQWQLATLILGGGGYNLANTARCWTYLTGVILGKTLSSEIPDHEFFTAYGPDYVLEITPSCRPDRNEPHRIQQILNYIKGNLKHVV
Briefly: KDAC inhibition assay, Caliper EZ Reader II. It is filed as biochemical. The settings on record: for KDAC Inhibition Activity KDAC8 (% inhibition): % inhibition at 30 μM.

Another assay deals with T2, recombinant human KDAC1 (Homo sapiens, UniProt Q13547).
T2 construct: purchased BPS Bioscience
Briefly: KDAC inhibition assay, Caliper EZ Reader II. Type of assay: biochemical. The settings on record: for KDAC Inhibition Activity KDAC1 (% inhibition): % inhibition at 30 μM.

Assay [2] has as its system JLAT 10.6 cells, which have HIV-1-GFP stably integrated. Nature of the assay: Reactivation of HIV from latency in JLAT 10.6 cells (GFP, FACS). The settings on record: J-Lat 10.6, 24 h, read-out: EC50 in reactivating HIV from latency. It is filed as cell-based. As to the method:
JLAT 10.6 cells, which have HIV-1-GFP stably integrated, were incubated with the indicated compounds for 24 hours. […] Upon stimulation with an appropriate agent, they can produce HIV as measured by GFP recognition with fluorescent-activated cell sorting (FACS). Cells were fixed and FACS performed for GFP as a surrogate for HIV production using TNF alpha as positive control. Largazoles are SDL256, JMF 1080, and SDL148. Relative activation is normalized to TNF alpha.

The target of a further assay is T3, recombinant human KDAC6 (Homo sapiens, UniProt Q9UBN7).
T3 construct: purchased BPS Bioscience
T3 sequence (Q9UBN7 1-1215): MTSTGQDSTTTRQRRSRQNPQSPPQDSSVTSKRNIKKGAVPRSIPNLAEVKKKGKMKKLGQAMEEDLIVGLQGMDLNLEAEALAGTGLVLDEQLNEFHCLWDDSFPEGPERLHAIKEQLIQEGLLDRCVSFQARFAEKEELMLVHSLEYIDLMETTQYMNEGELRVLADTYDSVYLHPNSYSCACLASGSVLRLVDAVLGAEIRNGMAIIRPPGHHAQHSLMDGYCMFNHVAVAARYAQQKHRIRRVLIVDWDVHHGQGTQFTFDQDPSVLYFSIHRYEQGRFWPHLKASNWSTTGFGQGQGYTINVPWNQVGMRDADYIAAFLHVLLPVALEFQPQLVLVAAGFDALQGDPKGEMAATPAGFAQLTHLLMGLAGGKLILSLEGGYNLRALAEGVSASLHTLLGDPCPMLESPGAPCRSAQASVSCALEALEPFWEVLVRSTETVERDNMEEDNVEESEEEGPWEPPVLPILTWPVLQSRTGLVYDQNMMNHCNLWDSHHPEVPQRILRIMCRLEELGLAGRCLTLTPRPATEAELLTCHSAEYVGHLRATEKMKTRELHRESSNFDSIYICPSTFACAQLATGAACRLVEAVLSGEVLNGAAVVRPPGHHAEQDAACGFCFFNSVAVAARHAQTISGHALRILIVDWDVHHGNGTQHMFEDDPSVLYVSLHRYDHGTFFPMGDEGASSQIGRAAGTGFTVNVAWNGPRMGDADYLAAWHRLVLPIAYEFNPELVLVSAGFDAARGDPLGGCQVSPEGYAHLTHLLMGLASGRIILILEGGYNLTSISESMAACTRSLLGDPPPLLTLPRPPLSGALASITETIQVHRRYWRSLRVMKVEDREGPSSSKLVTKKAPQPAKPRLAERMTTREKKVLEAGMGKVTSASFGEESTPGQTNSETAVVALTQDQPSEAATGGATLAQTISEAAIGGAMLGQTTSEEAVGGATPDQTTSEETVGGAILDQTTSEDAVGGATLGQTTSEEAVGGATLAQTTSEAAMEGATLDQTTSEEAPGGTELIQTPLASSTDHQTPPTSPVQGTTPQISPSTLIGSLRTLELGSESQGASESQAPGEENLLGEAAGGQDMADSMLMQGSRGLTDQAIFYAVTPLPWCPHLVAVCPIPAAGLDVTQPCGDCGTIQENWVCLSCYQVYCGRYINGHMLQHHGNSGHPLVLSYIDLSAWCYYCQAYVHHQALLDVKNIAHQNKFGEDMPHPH
Briefly: KDAC inhibition assay, Caliper EZ Reader II. It is filed as biochemical. The settings on record: for KDAC Inhibition Activity KDAC6 (% inhibition): % inhibition at 30 μM.

The target in the next assay is T4, recombinant human KDAC3 (Homo sapiens, UniProt O15379).
T4 construct: purchased BPS Bioscience
Nature of the assay: KDAC inhibition assay, Caliper EZ Reader II. Type of assay: biochemical. Conditions: for KDAC Inhibition Activity KDAC3 (% inhibition): % inhibition at 30 μM.

T2 sequence (Q13547 whole entry): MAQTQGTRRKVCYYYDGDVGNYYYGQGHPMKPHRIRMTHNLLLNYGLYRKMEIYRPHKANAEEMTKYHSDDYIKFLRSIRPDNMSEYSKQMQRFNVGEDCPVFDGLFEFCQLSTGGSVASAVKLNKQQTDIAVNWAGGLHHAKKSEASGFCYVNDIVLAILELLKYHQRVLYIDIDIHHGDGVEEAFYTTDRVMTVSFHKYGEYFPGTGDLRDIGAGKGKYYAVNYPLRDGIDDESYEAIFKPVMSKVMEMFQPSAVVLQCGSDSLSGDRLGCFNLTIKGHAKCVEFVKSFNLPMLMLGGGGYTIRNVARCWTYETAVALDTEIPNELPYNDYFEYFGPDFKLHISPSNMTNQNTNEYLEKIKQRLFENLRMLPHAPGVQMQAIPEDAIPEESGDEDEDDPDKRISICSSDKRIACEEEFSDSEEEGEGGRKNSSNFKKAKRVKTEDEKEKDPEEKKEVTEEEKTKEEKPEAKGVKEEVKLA
T4 sequence (O15379 whole entry): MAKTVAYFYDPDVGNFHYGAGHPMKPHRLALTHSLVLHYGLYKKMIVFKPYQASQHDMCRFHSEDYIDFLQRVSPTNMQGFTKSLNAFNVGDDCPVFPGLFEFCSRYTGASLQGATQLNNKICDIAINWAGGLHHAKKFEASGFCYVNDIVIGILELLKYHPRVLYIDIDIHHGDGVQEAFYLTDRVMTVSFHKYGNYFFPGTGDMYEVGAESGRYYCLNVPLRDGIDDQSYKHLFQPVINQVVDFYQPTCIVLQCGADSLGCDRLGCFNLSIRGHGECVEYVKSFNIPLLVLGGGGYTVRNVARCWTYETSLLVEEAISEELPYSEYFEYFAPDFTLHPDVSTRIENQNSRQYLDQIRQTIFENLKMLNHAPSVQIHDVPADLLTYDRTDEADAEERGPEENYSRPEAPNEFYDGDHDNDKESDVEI
T4 sequence (Q9Y618 395-489 partner limits assumed): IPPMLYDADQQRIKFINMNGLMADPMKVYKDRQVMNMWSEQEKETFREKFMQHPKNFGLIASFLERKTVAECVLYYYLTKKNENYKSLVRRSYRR

The inhibition is how much of the control response was suppressed. By EC50 is commonly meant the concentration giving half of the maximal effect. Consider `CCCCCCCC(=O)SCC/C=C/[C@@H]1CC(=O)NCc2nc(cs2)C2=N[C@@](C)(CS2)C(=O)N[C@@H](C(C)C)C(=O)O1` [Largazole, largazole], for which the “potency against KDAC1, KDAC2, and KDAC3” value with KDAC1, KDAC2, and KDAC3 is “picomolar range”. For the same compound, the “reactivation of virus from latency, HIV-1 p24 ELISA in culture supernatants” value in assay [1] is on record as “able to reactivate virus from latency”. Also, on recombinant human KDAC8, the inhibition at 30 µM was determined as 28%. Further, the IC50 at recombinant human KDAC1 came to 2330 nM. In addition, the EC50 in assay [2] stood at 150 nM.

`CC(=O)SCC/C=C/[C@@H]1CC(=O)NCc2cc(ccn2)C2=N[C@@](C)(CS2)C(=O)N[C@@H](C(C)C)C(=O)O1` [SD-L-256, reference compound]: the IC50 is 1610 nM on recombinant human KDAC6 (10-point dose curve from 30 μM); greater than 30000 nM on recombinant human KDAC8 (10-point dose curve from 30 μM); 3480 nM on recombinant human KDAC1 (10-point dose curve from 30 μM); 470 nM on recombinant human KDAC3 (10-point dose curve from 30 μM, read-out: KDAC Inhibition Activity (IC50) KDAC3); 479 nM on recombinant human KDAC3 (read-out: KDAC Inhibition Activity (pIC50) KDAC3 (converted)). Also, the inhibition at 30 µM at recombinant human KDAC8 worked out at 39%. Also, the EC50 in assay [2] was 1600 nM.

Take “Cyclo-^DAsp(^DPro-Pro-Val)-NHCH2CH2CH2COOMe [Compound 12b]”: the “KDAC Inhibition Activity KDAC6 (% inhibition)” value on recombinant human KDAC6 is listed as “Not active”. Also, the “KDAC Inhibition Activity KDAC8 (% inhibition)” value at recombinant human KDAC8 is given as “Not active”. The “KDAC Inhibition Activity KDAC1 (% inhibition)” value on recombinant human KDAC1 was 5%. The “KDAC Inhibition Activity KDAC3 (% inhibition)” value on recombinant human KDAC3 is given as “Not active”.

In the case of “Cyclo-^DAsp(^DPro-Pro-Val)-NHCH2CH2CH2NH2 [Compound 16b]”, the “KDAC Inhibition Activity KDAC6 (% inhibition)” value at recombinant human KDAC6 is 2%^a. Moreover, the “KDAC Inhibition Activity KDAC8 (% inhibition)” value on recombinant human KDAC8 came out at 22%^a. In addition, the “KDAC Inhibition Activity KDAC1 (% inhibition)” value at recombinant human KDAC1 was 4.5%. Besides, on recombinant human KDAC3, the “KDAC Inhibition Activity KDAC3 (% inhibition)” value came to 14%^a.

As for “Cyclo-^DAsp(^DPro-Pro-Val)-NHCH2CH2CH2OH [Compound 10b]”, the “KDAC Inhibition Activity KDAC6 (% inhibition)” value at recombinant human KDAC6 is on record as 1%. Besides, the “KDAC Inhibition Activity KDAC8 (% inhibition)” value at recombinant human KDAC8 is 25%. For the same compound, the “KDAC Inhibition Activity KDAC1 (% inhibition)” value at recombinant human KDAC1 amounted to 1%. In addition, the “KDAC Inhibition Activity KDAC3 (% inhibition)” value at recombinant human KDAC3 is given as 9%.

For the compound “Cyclo-^DAsp(^DPro-Pro-Val)-NHCH2CH2CH2S(═O)2CH3 [Compound 9b]”, the “KDAC Inhibition Activity KDAC6 (% inhibition)” value on recombinant human KDAC6 is 1%. Also, at recombinant human KDAC8, the “KDAC Inhibition Activity KDAC8 (% inhibition)” value came to 22%. For the same compound, the “KDAC Inhibition Activity KDAC1 (% inhibition)” value on recombinant human KDAC1 was 4%. Also, the “KDAC Inhibition Activity KDAC3 (% inhibition)” value on recombinant human KDAC3 is 3%.

For the compound “Cyclo-^DAsp(^DPro-Pro-Val)-NHCH2CH2CH2S(═O)CH3 [Compound 8b]”, at recombinant human KDAC6, the “KDAC Inhibition Activity KDAC6 (% inhibition)” value worked out at 3%. Also, the “KDAC Inhibition Activity KDAC8 (% inhibition)” value at recombinant human KDAC8 is reported as 38%. Also, on recombinant human KDAC1, the “KDAC Inhibition Activity KDAC1 (% inhibition)” value is 3.5%. The “KDAC Inhibition Activity KDAC3 (% inhibition)” value at recombinant human KDAC3 amounted to 5%.

As for “Cyclo-^DAsp(^DPro-Pro-Val)-NHCH2CH2CH2SCH3 [Compound 7b]”, the “KDAC Inhibition Activity KDAC6 (% inhibition)” value at recombinant human KDAC6 was “Not active”. Also, the “KDAC Inhibition Activity KDAC8 (% inhibition)” value at recombinant human KDAC8 is given as 28%. In addition, the “KDAC Inhibition Activity KDAC1 (% inhibition)” value at recombinant human KDAC1 is listed as 1.5%. The “KDAC Inhibition Activity KDAC3 (% inhibition)” value on recombinant human KDAC3 is on record as “Not active”.

For “Cyclo-^DAsp(^DPro-Pro-Val)-NHCH2CH2CH2SH [Compound 6b]”, at recombinant human KDAC6, the “KDAC Inhibition Activity KDAC6 (% inhibition)” value is “Not active”. At recombinant human KDAC8, the “KDAC Inhibition Activity KDAC8 (% inhibition)” value was 8%. Moreover, the “KDAC Inhibition Activity KDAC1 (% inhibition)” value on recombinant human KDAC1 is “Not active”. In addition, the “KDAC Inhibition Activity KDAC3 (% inhibition)” value at recombinant human KDAC3 is reported as 9%.

For “Cyclo-^DAsp(^DPro-Pro-Val)-NHCH2CH2SH [Compound 5b]”, on recombinant human KDAC6, the “KDAC Inhibition Activity KDAC6 (% inhibition)” value was found to be 23%. For the same compound, on recombinant human KDAC8, the “KDAC Inhibition Activity KDAC8 (% inhibition)” value was 6%. Further, the “KDAC Inhibition Activity KDAC1 (% inhibition)” value on recombinant human KDAC1 was “Not active”. Moreover, the “KDAC Inhibition Activity KDAC3 (% inhibition)” value at recombinant human KDAC3 is recorded as “Not active”.

For “Cyclo-^DAsp(^DPro-Pro-Val)-NHCH2CH2S—SCH2CH2NH2 [Compound 15b]”, on recombinant human KDAC6, the “KDAC Inhibition Activity KDAC6 (% inhibition)” value is on record as 7%. The “KDAC Inhibition Activity KDAC8 (% inhibition)” value at recombinant human KDAC8 is “Not active”. The “KDAC Inhibition Activity KDAC1 (% inhibition)” value on recombinant human KDAC1 worked out at 5%. Further, the “KDAC Inhibition Activity KDAC3 (% inhibition)” value on recombinant human KDAC3 was 7%.

As to “Cyclo-^DAsp(^DPro-Pro-Val)-NHCH2CH2S—SCH2CH2NHP(O)(OPh) [Compound 11b]”, on recombinant human KDAC6, the “KDAC Inhibition Activity KDAC6 (% inhibition)” value turned out to be 16%. The “KDAC Inhibition Activity KDAC8 (% inhibition)” value on recombinant human KDAC8 is on record as 10%. Further, the “KDAC Inhibition Activity KDAC1 (% inhibition)” value on recombinant human KDAC1 is “Not active”. The “KDAC Inhibition Activity KDAC3 (% inhibition)” value on recombinant human KDAC3 turned out to be 4%.

Consider “Cyclo-^DAsp(^DPro-Pro-Val)-OBn [Compound 1b]”, for which, at recombinant human KDAC6, the “KDAC Inhibition Activity KDAC6 (% inhibition)” value is reported as 8%. Further, the “KDAC Inhibition Activity KDAC8 (% inhibition)” value at recombinant human KDAC8 came out at 9%. For the same compound, the “KDAC Inhibition Activity KDAC1 (% inhibition)” value at recombinant human KDAC1 is listed as 7%. For the same compound, the “KDAC Inhibition Activity KDAC3 (% inhibition)” value on recombinant human KDAC3 is recorded as 10%.
